Experimental data taken from PubChem BioAssay AID330 (DTP/NCI, 2004).
“And” between values parts separate entries of the source, which are not always exact repeats. Equal entries are not always repeated. Inconclusive results and toxic doses are left out.

Test system: P388 leukemia ip, CD2F1 mice, survival T/C
Experiment: NCI In Vivo Anticancer Drug Screen. Data for tumor model P388 Leukemia (intraperitoneal) in CD2F1 (CDF1) mice
Details: endpoint: median survival time, higher = longer survival
In short: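 Mice carrying the transplanted tumor received test compound or vehicle. Survival was recorded in each group, and the value is the treated-group measurement divided by that of the vehicle-treated control group.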

For `CCC(c1ccccc1)c1noc(CCN(CC)CC)n1` (stereo unspecified), which T/C (dose: 50.0 mg/kg/injection, schedule: Q01DX009 (ip), vehicle: Klucel (hydroxypropylcellulose) (HPC)) is on record?
Its T/C is 101 % of control.

What about the T/C (dose: 100.0 mg/kg/injection, schedule: Q01DX009 (ip), vehicle: Klucel (hydroxypropylcellulose) (HPC)) of the same molecule?
The T/C was 99 % of control.

What about the T/C (dose: 200.0 mg/kg/injection, schedule: Q01DX009 (ip), vehicle: Klucel (hydroxypropylcellulose) (HPC)) of the same molecule?
The T/C was 113 % of control.

Which results are given for `CC(=O)OC1CCC2C3CCC4CC(=O)CCC4(C)C3CCC12C` (stereo unspecified)?
T/C (dose: 25.0 mg/kg/injection, schedule: Q01DX009 (ip), vehicle: saline with Tween-80): 91 % of control; T/C (dose: 50.0 mg/kg/injection, schedule: Q01DX009 (ip), vehicle: saline with Tween-80): 97 % of control; T/C (dose: 100.0 mg/kg/injection, schedule: Q01DX009 (ip), vehicle: saline with Tween-80): 97 % of control; T/C (dose: 200.0 mg/kg/injection, schedule: Q01DX009 (ip), vehicle: saline with Tween-80): 100 % of control

What does the source list for `CCNc1ncnc2c1cnn2C`?
T/C (dose: 25.0 mg/kg/injection, schedule: Q01DX009 (ip), vehicle: saline sonified): 109 % of control; T/C (dose: 50.0 mg/kg/injection, schedule: Q01DX009 (ip), vehicle: saline sonified): 113 % of control; T/C (dose: 50.0 mg/kg/injection, schedule: Q04DX003 (ip), vehicle: saline sonified): 112 % of control; T/C (dose: 100.0 mg/kg/injection, schedule: Q04DX003 (ip), vehicle: saline sonified): 104 % of control; T/C (dose: 200.0 mg/kg/injection, schedule: Q04DX003 (ip), vehicle: saline sonified): 116 % of control

Which results are given for `Cc1ccc(SSC(=S)N2CCOCC2)cc1`?
T/C (dose: 100.0 mg/kg/injection, schedule: Q01DX001 (ip), vehicle: Klucel (hydroxypropylcellulose) (HPC)): 104 % of control; T/C (dose: 200.0 mg/kg/injection, schedule: Q01DX001 (ip), vehicle: Klucel (hydroxypropylcellulose) (HPC)): 96 % of control; T/C (dose: 400.0 mg/kg/injection, schedule: Q01DX001 (ip), vehicle: Klucel (hydroxypropylcellulose) (HPC)): 101 % of control

How did the T/C (dose: 15.0 mg/kg/injection, schedule: Q01DX005 (ip), vehicle: Klucel (hydroxypropylcellulose) (HPC)) turn out when `CC(=O)c1c(C)cc2cccc(O)c2c1O` was run?
The T/C was 105 % of control.

What about the T/C (dose: 30.0 mg/kg/injection, schedule: Q01DX005 (ip), vehicle: Klucel (hydroxypropylcellulose) (HPC)) of the same molecule?
Its T/C is 112 % of control.

What about the T/C (dose: 60.0 mg/kg/injection, schedule: Q01DX005 (ip), vehicle: Klucel (hydroxypropylcellulose) (HPC)) of the same molecule?
The T/C was 103 % of control.

What about the T/C (dose: 120.0 mg/kg/injection, schedule: Q01DX005 (ip), vehicle: Klucel (hydroxypropylcellulose) (HPC)) of the same molecule?
Its T/C is 108 % of control.

Which results are given for `Cc1c2ccnc(C(N)=O)c2c(C)c2c1[nH]c1ccccc12`?
T/C (dose: 6.25 mg/kg/injection, schedule: Q04DX002 (ip), vehicle: distilled water + Tween-80): 99 % of control; T/C (dose: 6.25 mg/kg/injection, schedule: Q04DX003 (ip), vehicle: distilled water + Tween-80): 111 % of control; T/C (dose: 12.5 mg/kg/injection, schedule: Q04DX002 (ip), vehicle: distilled water + Tween-80): 99 % of control; T/C (dose: 12.5 mg/kg/injection, schedule: Q04DX003 (ip), vehicle: distilled water + Tween-80): 112 % of control; T/C (dose: 25.0 mg/kg/injection, schedule: Q04DX002 (ip), vehicle: distilled water + Tween-80): 99 % of control; T/C (dose: 25.0 mg/kg/injection, schedule: Q04DX003 (ip), vehicle: distilled water + Tween-80): 112 % of control; T/C (dose: 50.0 mg/kg/injection, schedule: Q04DX002 (ip), vehicle: distilled water + Tween-80): 104 % of control; T/C (dose: 50.0 mg/kg/injection, schedule: Q04DX003 (ip), vehicle: distilled water + Tween-80): 104 % of control; T/C (dose: 100.0 mg/kg/injection, schedule: Q04DX002 (ip), vehicle: distilled water + Tween-80): 104 % of control and 111 % of control; T/C (dose: 100.0 mg/kg/injection, schedule: Q04DX003 (ip), vehicle: distilled water + Tween-80): 111 % of control; T/C (dose: 200.0 mg/kg/injection, schedule: Q04DX002 (ip), vehicle: distilled water + Tween-80): 118 % of control; T/C (dose: 200.0 mg/kg/injection, schedule: Q04DX003 (ip), vehicle: distilled water + Tween-80): 115 % of control; T/C (dose: 800.0 mg/kg/injection, schedule: Q04DX002 (ip), vehicle: distilled water + Tween-80): 155 % of control

Which T/C (dose: 6.25 mg/kg/injection, schedule: Q01DX009 (ip), vehicle: suspension in saline) does the source give for `CCCS/C(N)=N/N=C/c1ccc([N+](=O)[O-])o1` here?
Its T/C is 102 % of control.

And the T/C (dose: 12.5 mg/kg/injection, schedule: Q01DX009 (ip), vehicle: suspension in saline)?
Its T/C is 92 % of control.

What about the T/C (dose: 25.0 mg/kg/injection, schedule: Q01DX009 (ip), vehicle: suspension in saline) of the same molecule?
The T/C was 91 % of control.

What about the T/C (dose: 50.0 mg/kg/injection, schedule: Q01DX009 (ip), vehicle: suspension in saline) of the same molecule?
The T/C was 109 % of control.

For `Cc1ccnc(NCCCNc2nccc(C)n2)n1`, which T/C (dose: 50.0 mg/kg/injection, schedule: Q01DX005 (ip), vehicle: Klucel (hydroxypropylcellulose) (HPC)) is on record?
The T/C was 102 % of control.

And the T/C (dose: 100.0 mg/kg/injection, schedule: Q01DX005 (ip), vehicle: Klucel (hydroxypropylcellulose) (HPC))?
The T/C was 96 % of control.

What about the T/C (dose: 200.0 mg/kg/injection, schedule: Q01DX005 (ip), vehicle: Klucel (hydroxypropylcellulose) (HPC)) of the same molecule?
Its T/C is 88 % of control.

For `CC(=O)NC(CC(C)C)C(=O)NC(CC(C)C)C(=O)NC(C=O)CCCN=C(N)N` (stereo unspecified), which T/C (dose: 100.0 mg/kg/injection, schedule: Q01DX001 (ip), vehicle: saline) is on record?
The T/C was 106 % of control.

And the T/C (dose: 200.0 mg/kg/injection, schedule: Q01DX001 (ip), vehicle: saline)?
The T/C was 105 % of control.
